Consider 56 compounds from ChEMBL document CHEMBL1136837, “Unified QSAR approach to antimicrobials. 4. Multi-target QSAR modeling and comparative multi-distance study of the giant components of antiviral drug-drug complex networks” (Bioorg Med Chem, 2009).

Starred links: 1 amine or outer side, 2 acyl side, 3 side chain; linkers in the order of their positions; H or OH if unused. Non-standard residues stand in square brackets, D forms with d. Residues, ends and D or L forms follow the SMILES beside them. *: point of attachment. Hyp(2-Ph-quinolin-4-yl) = O=C(O)[C@@H]1C[C@@H](Oc2cc(-c3ccccc3)nc3ccccc23)CN1; Acca(2-Et,1R,2R) = CC[C@@H]1C[C@]1(N)C(=O)O; NH(1S-phenylpropyl) = CC[C@H](N*)c1ccccc1; NH(1R-phenylethyl) = C[C@@H](N*)c1ccccc1; Dip = N[C@H](C(=O)O)C(c1ccccc1)c1ccccc1; Hyp = O=C(O)[C@@H]1C[C@@H](O)CN1; azaNva = CCCN(N[*:1])C(=O)[*:2]; Cha = N[C@@H](CC1CCCCC1)C(=O)O; X2 = C[C@H](N*)c1cccc2ccccc12; Chg = N[C@H](C(=O)O)C1CCCCC1; NH(CH2)3Ph = c1ccc(CCCN*)cc1; NHPhenethyl = c1ccc(CCN*)cc1; X3 = C[C@H](N*)c1ccc(Br)cc1; X5 = c1ccc2c(c1)CC[C@@H]2N*; X9 = C[C@H](N*)c1nnn[nH]1; X6 = c1ccc2c(c1)CC(N*)C2; Ac3c = NC1(C(=O)O)CC1; X1 = Clc1ccccc1CCN*; X4 = C1CCC(CCN*)CC1; Bn = c1ccc(C*)cc1

What is called IC50 is the point on the concentration scale where inhibition reaches its midpoint. Read a high IC50 as weaker potency.

The first test concerns Hepatitis C virus. The experiment in a line: Antiviral activity against Hepatitis C virus. Format: functional, organism-based, Hepacivirus hominis.
Settings: not given
Consider `O=C(O)[C@H](Cc1ccccc1)N(Cc1ccc(-c2nccs2)cc1)C(=O)c1ccc(Cl)cc1Cl` (stereo in doubt; form 2), for which the IC50 was determined as 5.7 µM.

Still in this test, the particulars now being: Hepatitis C virus.
The compound `CCCN(NC(=O)[C@@H]1C[C@@H](OCc2ccccc2)CN1C(=O)[C@@H](NC(=O)[C@@H](NC(=O)[C@@H](CCC(=O)O)NC(=O)[C@H](CC(=O)O)NC(C)=O)[C@@H](C)CC)C(C)C)C(=O)N[C@H]1CCc2ccccc21` (Ac-D[dE]IV[Hyp](Bn)[azaNva]-X5) had an IC50 of 0.1 µM. The same measure, in the same setting: to `CCCN(NC(=O)[C@@H]1C[C@@H](OCc2ccccc2)CN1C(=O)[C@@H](NC(=O)[C@@H](NC(=O)[C@@H](CCC(=O)O)NC(=O)[C@H](CC(=O)O)NC(C)=O)[C@@H](C)CC)C(C)C)C(=O)N[C@@H](C)c1cccc2ccccc12` (Ac-D[dE]IV[Hyp](Bn)[azaNva]-X2) belongs 0.49 µM; to `O=C(O)[C@H](Cc1ccccc1)N(Cc1cccc([N+](=O)[O-])c1)C(=O)c1ccc(Cl)cc1Cl`, 0.7 µM; to `COC(=O)c1ccccc1CCNC(=O)[C@H](CS)NC(=O)[C@H](CC(C)C)NC(=O)[C@H](CCC(=O)O)NC(=O)OCC(C)C`, 54 µM. On the same count and under the same terms, to `N#Cc1c(Cl)cc(Cl)cc1COc1cccc(C(=O)/C=C(\O)C(=O)O)c1` belongs 0.045 µM. Still for that read-out and setting: to `COc1ccc2c(O[C@@H]3C[C@H]4C(=O)N[C@]5(C(=O)O)C[C@H]5/C=C\CCCCC[C@H](NC(=O)OC5CCCC5)C(=O)N4C3)cc(-n3cccc3)nc2c1` belongs 0.0036 µM; to `CCCN(NC(=O)[C@@H]1C[C@@H](OCc2ccccc2)CN1C(=O)[C@@H](NC(=O)[C@@H](NC(=O)[C@@H](CCC(=O)O)NC(=O)[C@H](CC(=O)O)NC(C)=O)[C@@H](C)CC)C(C)C)C(=O)N[C@@H](C)c1nnn[nH]1` (Ac-D[dE]IV[Hyp](Bn)[azaNva]-X9), 0.86 µM; to `CC[C@@H]1C[C@]1(NC(=O)[C@@H]1C[C@@H](Oc2cc(-c3ccccc3)nc3ccccc23)CN1C(=O)[C@@H](NC(=O)[C@@H](NC(C)=O)C1CCCCC1)C(C)C)C(=O)O` (Ac-[Chg]V[Hyp(2-Ph-quinolin-4-yl)][Acca(2-Et,1R,2R)]-OH), 0.013 µM.

Regarding `CC(=O)N[C@@H](CC(=O)O)C(=O)N[C@@H](CCC(=O)O)C(=O)N[C@H](C(=O)N[C@@H](CCC(=O)O)C(=O)N[C@@H](CC1CCCCC1)C(=O)N[C@@H](CS)C(=O)NC1Cc2ccccc2C1)C(c1ccccc1)c1ccccc1` (Ac-DE[Dip]E[Cha]C-X6), the IC50 was found to be 1.7 µM. Same read-out and setting: to `O=C(O)C(=O)CC(=O)c1ccccc1OCc1ccccc1` belongs 44 µM; to `COc1ccc2c(O[C@@H]3C[C@H]4C(=O)N[C@]5(C(=O)O)C[C@H]5/C=C\CCCCC[C@H](NC(=O)OC(C)(C)C)C(=O)N4C3)cc(-c3csc(N)n3)nc2c1`, 0.0055 µM. Still for that read-out and setting: to `O=C(CC(O)C(=O)O)c1ccccc1` (stereo unspecified) belongs 50 µM. As for `O=C(O)C(=O)CC(=O)c1ccccc1`, 5.7 µM corresponded to half-maximal inhibition (IC50). Same read-out and setting: to `O=C(O)[C@H](Cc1ccccc1)N(Cc1cccc(Br)c1)C(=O)c1ccc(Cl)cc1Cl` belongs 3.5 µM.

`N#Cc1ccccc1CN(C(=O)c1ccc(Cl)cc1Cl)[C@@H](Cc1ccccc1)C(=O)O` came in with an IC50 of 6 µM. Still for that read-out and setting: to `Cc1ccc(C(=O)CC(=O)C(=O)O)cc1` belongs 50 µM; to `CC(=O)N[C@@H](CC(=O)O)C(=O)N[C@@H](CCC(=O)O)C(=O)N[C@H](C(=O)N[C@@H](CCC(=O)O)C(=O)N[C@@H](CC1CCCCC1)C(=O)N[C@@H](CS)C(=O)NCCC1CCCCC1)C(c1ccccc1)c1ccccc1` (Ac-DE[Dip]E[Cha]C-X4), 1.54 µM. Same read-out and setting: as for `CC(=O)N[C@H](C(=O)N[C@H](C(=O)N1C[C@H](Oc2cc(-c3ccccc3)nc3ccccc23)C[C@H]1C(=O)NC1(C(=O)O)CC1)C(C)C)C1CCCCC1` (Ac-[Chg]V[Hyp(2-Ph-quinolin-4-yl)][Ac3c]-OH), the figure is 0.37 µM. Still for that read-out and setting: to `O=C(CC(=O)C(=O)O)Cc1ccncc1` belongs 50 µM; to `COC(=O)c1cccc(CCNC(=O)[C@H](CS)NC(=O)[C@H](CC(C)C)NC(=O)[C@H](CCC(=O)O)NC(=O)OCC(C)C)c1`, 25 µM. Compound `COc1ccc2c(O[C@@H]3C[C@H]4C(=O)N[C@]5(C(=O)O)C[C@H]5/C=C\CCCCC[C@H](NC(=O)OC(C)(C)C)C(=O)N4C3)cc(-c3nnc(C)o3)nc2c1` came in with a half-inhibitory concentration (IC50) of 0.012 µM. The same measure, in the same setting: as for `O=C(O)C(=O)CC(=O)c1cccc(NS(=O)(=O)c2ccccc2)c1`, the figure is 16 µM; as for `CC(=O)N[C@@H](CC(=O)O)C(=O)N[C@@H](CCC(=O)O)C(=O)N[C@H](C(=O)N[C@@H](CCC(=O)O)C(=O)N[C@@H](CC1CCCCC1)C(=O)N[C@@H](CS)C(=O)NCCc1ccccc1)C(c1ccccc1)c1ccccc1` (Ac-DE[Dip]E[Cha]C-NHPhenethyl), 0.007 µM.

In turn, `Cc1cccc(CN(C(=O)c2ccc(Cl)cc2Cl)[C@@H](Cc2ccccc2)C(=O)O)c1` returned an IC50 of 1.8 µM. Still for that read-out and setting: as for `C[C@@]1(O)[C@H](O)[C@@H](CO)O[C@H]1n1ccc2c(N)nc(F)nc21`, the figure is 100 µM. Turning to `CC(=O)N[C@@H](CC(=O)O)C(=O)N[C@@H](CCC(=O)O)C(=O)N[C@H](C(=O)N[C@@H](CCC(=O)O)C(=O)N[C@@H](CC1CCCCC1)C(=O)N[C@@H](CS)C(=O)NCCCc1ccccc1)C(c1ccccc1)c1ccccc1` (Ac-DE[Dip]E[Cha]C-{NH(CH2)3Ph}), half-maximal inhibition (IC50) was put at 0.21 µM. As to `CCCC1(CC(=O)O)OCCc2c1[nH]c1c(C)cc(F)c(C#N)c21` (stereo unspecified), the IC50 stood at 0.12 µM.

Compound `CNc1nc(-c2cc(O[C@@H]3C[C@H]4C(=O)N[C@]5(C(=O)O)C[C@H]5/C=C\CCCCC[C@H](NC(=O)OC(C)(C)C)C(=O)N4C3)c3ccc(OC)cc3n2)cs1` gave an IC50 of 0.0064 µM. The same measure, in the same setting: to `CC(=O)N[C@H](C(=O)N[C@H](C(=O)N1C[C@H](OCc2cccc3ccccc23)C[C@H]1C(=O)N[C@@]1(C(=O)O)C[C@@H]1Cc1ccccc1)C(C)C)C1CCCCC1` belongs 81 µM.

Compound `CCC[C@@]1(CC(=O)O)OCCc2c1[nH]c1c(C)ccc(C#N)c21` came in with an IC50 of 2.4 µM. Compared with the last compound, the IC50 is about 34-fold lower. Same read-out and setting: to `O=C(O)[C@H](Cc1ccccc1)N(Cc1cccc(Cl)c1)C(=O)c1ccc(Cl)cc1Cl` belongs 1.4 µM; to `CCC[C@]1(CC(=O)O)OCCc2c1[nH]c1c(C)ccc(C#N)c21`, 0.33 µM. Still for that read-out and setting: to `CCC[C@@]1(CC(=O)O)OCCc2c1[nH]c1c(C)cc(F)c(C#N)c21` belongs 0.63 µM; to `C[C@@]1(O)[C@H](O)[C@@H](CO)O[C@H]1n1ncc2c(N)ncnc21`, 100 µM. On the same count and under the same terms, to `CC(C)COC(=O)N[C@@H](CCC(=O)O)C(=O)N[C@@H](CC(C)C)C(=O)N[C@@H](CS)C(=O)NCCc1ccccc1` belongs 19 µM; to `CCCC1(CC(=O)O)OCCc2c1[nH]c1c(C)ccc(C#N)c21` (stereo unspecified), 0.57 µM. The compound `COc1ccc2c(O[C@@H]3C[C@H]4C(=O)N[C@]5(C(=O)O)C[C@H]5/C=C\CCCCC[C@H](NC(=O)OC(C)(C)C)C(=O)N4C3)cc(-n3cnc(C)c3)nc2c1` yielded an IC50 of 0.014 µM. On the same count and under the same terms, to `O=C(O)[C@H](Cc1ccccc1)N(Cc1ccc(-c2cc3ccccc3o2)s1)C(=O)c1ccc(Cl)cc1Cl` belongs 8.6 µM. Still for that read-out and setting: to `COc1ccc2c(O[C@@H]3C[C@H]4C(=O)N[C@]5(C(=O)O)C[C@H]5/C=C\CCCCC[C@H](NC(=O)OC5CCC5)C(=O)N4C3)cc(-c3csc(NC(C)=O)n3)nc2c1` belongs 0.0026 µM; to `COc1ccc2c(O[C@@H]3C[C@H]4C(=O)N[C@]5(C(=O)O)C[C@H]5/C=C\CCCCC[C@H](NC(=O)OC5CCCC5)C(=O)N4C3)cc(-n3ccc(C)n3)nc2c1`, 0.0022 µM. The same measure, in the same setting: to `CC(C)(C)C(=O)CC(=O)C(=O)O` belongs 50 µM. Consider `CC[C@@H]1C[C@]1(NC(=O)[C@@H]1C[C@@H](Oc2cccc(-c3ccccc3)c2)CN1C(=O)[C@@H](NC(=O)[C@@H](NC(C)=O)C1CCCCC1)C(C)C)C(=O)O`, for which half-maximal inhibition (IC50) required 0.12 µM. This IC50 lies about 420-fold lower than the previous one. Still for that read-out and setting: to `CCCN(NC(=O)[C@@H]1C[C@@H](OCc2ccccc2)CN1C(=O)[C@@H](NC(=O)[C@@H](NC(=O)[C@@H](CCC(=O)O)NC(=O)[C@H](CC(=O)O)NC(C)=O)[C@@H](C)CC)C(C)C)C(=O)N[C@@H](CC)c1ccccc1` (Ac-D[dE]IV[Hyp](Bn)[azaNva]-{NH(1S-phenylpropyl)}) belongs 0.44 µM; to `O=C(CC(=O)C(=O)O)Cc1ccco1`, 50 µM. Consider `O=C(O)[C@H](Cc1ccccc1)N(Cc1cccc(F)c1)C(=O)c1ccc(Cl)cc1Cl`, for which inhibition was half-maximal at 3.2 µM (IC50). Compared with the last compound, the IC50 is about 16-fold lower. Consider `CCCN(NC(=O)[C@@H]1C[C@@H](OCc2ccccc2)CN1C(=O)[C@@H](NC(=O)[C@@H](NC(=O)[C@@H](CCC(=O)O)NC(=O)[C@H](CC(=O)O)NC(C)=O)[C@@H](C)CC)C(C)C)C(=O)N[C@H](C)c1ccccc1` (Ac-D[dE]IV[Hyp](Bn)[azaNva]-{NH(1R-phenylethyl)}), for which the IC50 is 4.3 µM. The IC50 values of the last two compounds are within 1.5-fold of each other.

`CC(=O)N[C@@H](CC(=O)O)C(=O)N[C@@H](CCC(=O)O)C(=O)N[C@H](C(=O)N[C@@H](CCC(=O)O)C(=O)N[C@@H](CC1CCCCC1)C(=O)N[C@@H](CS)C(=O)NCCc1ccccc1Cl)C(c1ccccc1)c1ccccc1` (Ac-DE[Dip]E[Cha]C-X1) registered an IC50 of 0.002 µM. Compared with the last compound, the IC50 is about 2200-fold lower. The same measure, in the same setting: as for `O=C(O)[C@H](Cc1ccccc1)N(Cc1cccnc1)C(=O)c1ccc(Cl)cc1Cl`, the figure is 11 µM; as for `COc1ccc2c(O[C@@H]3C[C@H]4C(=O)N[C@]5(C(=O)O)C[C@H]5/C=C\CCCCC[C@H](NC(=O)N[C@H](C)C(C)(C)C)C(=O)N4C3)cc(-c3csc(NC(C)=O)n3)nc2c1`, 0.0014 µM. The same measure, in the same setting: to `CC(=O)CC(=O)C(=O)O` belongs 50 µM; to `CCCN(NC(=O)[C@@H]1C[C@@H](OCc2ccccc2)CN1C(=O)[C@@H](NC(=O)[C@@H](NC(=O)[C@@H](CCC(=O)O)NC(=O)[C@H](CC(=O)O)NC(C)=O)[C@@H](C)CC)C(C)C)C(=O)N[C@@H](C)c1ccc(Br)cc1` (Ac-D[dE]IV[Hyp](Bn)[azaNva]-X3), 0.072 µM.

On to `CCCCOc1ccccc1C(=O)CC(=O)C(=O)O`, for which the IC50 is 10 µM. Same read-out and setting: to `N#CCCCOc1ccccc1C(=O)CC(=O)C(=O)O` belongs 0.35 µM. On the same count and under the same terms, to `COc1ccc2c(O[C@@H]3C[C@H]4C(=O)N[C@]5(C(=O)O)C[C@H]5/C=C\CCCCC[C@H](NC(=O)OC(C)(C)C)C(=O)N4C3)cc(-n3ccnc3)nc2c1` belongs 0.0047 µM; to `CC(=O)N[C@H](C(=O)N[C@H](C(=O)N1C[C@H](OCc2cccc3ccccc23)C[C@H]1C(=O)N[C@@]1(C(=O)O)C[C@@H]1CCc1ccccc1)C(C)C)C1CCCCC1`, 90 µM.
